SMILES strings stand for the structures. Values after ≈ are worked out from the molar mass of the structure shown. Counter-ions that a name gives are not always drawn.

In assay [1] the test system is Streptococcus pyogenes A 88. The assay is described as follows: Antibacterial activity, minimum inhibitory concentration. The conditions noted are these: A88, 18 h, read-out: minimum inhibitory concentration, S. pyogenes.
Method: (§1) The antibacterial activity of some of the 3H-1,5-benzodiazepines having the general formula I was tested on the following microorganisms:
(§2) Escherichia coli 100, Bacillus subtilis ATCC 9466, Micrococcus pyogenes SG-511, grown in Difco nutritive gelatin; Streptococcus pyogenes A 88 grown in Difco "Brain heart infusion agar" gelatin with 5 percent difibrinated Guinea pig blood.
(§3) The results were read after 18 hours incubation at 35°-37°C.
In assay [2] the test system is Bacillus subtilis ATCC 9466. Described as above. Particulars: ATCC9466, 18 h, read-out: minimum inhibitory concentration, B. subtilis.
Method: as §1, §2, §3
In assay [3] the test system is influenza A virus (PR8 strain). Format: in vivo. The conditions noted are these: 0.5 MTD in 10 ml buffered saline with virus, 1 hour at 37°C.
For a further assay, the system named is Escherichia coli 100. The assay is described as follows: Antibacterial activity, minimum inhibitory concentration. The conditions noted are these: Escherichia coli, 100, 18 h, read-out: minimum inhibitory concentration, B. coli.
Assay [4] deals with Micrococcus pyogenes SG-511. The assay is described as above. Particulars: Staphylococcus aureus, SG511, 18 h, read-out: minimum inhibitory concentration, M. pyogenes.
Method: as §1, §2, §3

Method for Escherichia coli 100: as §1, §2, §3

On to `CCN(CC)CCSC1=Nc2ccccc2N=C(c2ccc(C)cc2)C1` [Compound 66], for which the MIC in assay [1] was determined as 80 µg/mL (≈ 219 µM); in assay [2], 40 µg/mL (≈ 109 µM). Besides, the “APR8: difference between logarithms of EID95 of controls and of treated eggs” value (shortened to “APR8: difference between logarithms”) in assay [3] stood at 1.
On to `CN1CCN(CCSC2=Nc3ccccc3N=C(c3ccc(Sc4ccccc4)cc3)C2)CC1` [Compound 34, 2,beta,N(N'-methyl)piperazinoethylthio-4,p-phenylthiophenyl-3H-1,5-benzodiazepine citrate], for which, in assay [2], the MIC stood at 40 µg/mL. Moreover, in assay [3], the “APR8: difference between logarithms” value was over 3.
On to `C[N+]1(CCCSC2=Nc3ccccc3N=C(c3ccc(Sc4ccccc4)cc3)C2)CCCC1` [Compound 38, 2,gamma,N-pyrrolidinopropylthio-4,p-phenylthiophenyl-3H-1,5-benzodiazepine iodomethylate], for which the MIC was 10 µg/mL in assay [1], 10 µg/mL in assay [2], 160 µg/mL in the assay on Escherichia coli 100 and 2.5 µg/mL in assay [4]. Further, the “APR8: difference between logarithms” value in assay [3] was found to be 3.
Regarding `C[N+](C)(C)CCCSC1=Nc2ccccc2N=C(c2ccc(Sc3ccccc3)cc2)C1` [Compound 42, 2,gamma,N-dimethylaminopropylthio-4,p-phenylthiophenyl-3H-1,5-benzodiazepine iodomethylate], the MIC in assay [2] stood at 40 µg/mL; in the assay on Escherichia coli 100, 80 µg/mL. In addition, in assay [3], the “APR8: difference between logarithms” value came to 3.
`CN(C)CCCSC1=Nc2ccccc2N=C(c2ccc(Sc3ccccc3)cc2)C1` [Compound 41, 2,gamma,N-dimethylaminopropylthio-4,p-phenylthiophenyl-3H-1,5-benzodiazepine.HCl]: the MIC is 1.25 µg/mL in assay [1] and 10 µg/mL in assay [2]. Also, the “APR8: difference between logarithms” value in assay [3] is recorded as over 3.
Regarding `C[N+]1(CCSC2=Nc3ccccc3N=C(c3ccc(Sc4ccccc4)cc3)C2)CCCCC1` [Compound 48, 2,beta,N-piperidinoethylthio-4,p-phenylthiophenyl-3H-1,5-benzodiazepine iodomethylate], the MIC was found to be 10 µg/mL in assay [2] and 80 µg/mL with Escherichia coli 100. Also, the “APR8: difference between logarithms” value in assay [3] is reported as over 4.
The matching figures for `C[N+]1(CCSC2=Nc3ccccc3N=C(c3ccc(Sc4ccccc4)cc3)C2)CCCC1` [Compound 44, 2, beta,N-pyrrolidinoethylthio-4,p-phenylthiophenyl-3H-1,5-benzodiazepine iodomethylate]: 40 µg/mL, 160 µg/mL and 2.
`CC[N+](C)(CC)CCCSC1=Nc2ccccc2N=C(c2ccc(Sc3ccccc3)cc2)C1` [Compound 40, 2,gamma,N-diethylaminopropylthio-4,p-phenylthiophenyl-3H-1,5-benzodiazepineiodomethylate]: the MIC (in assay [1]; in assay [2]; with Escherichia coli 100) was 5 µg/mL each time. The “APR8: difference between logarithms” value in assay [3] is listed as 1.
As for `C[N+]1(C)CCN(CCSC2=Nc3ccccc3N=C(c3ccc(Sc4ccccc4)cc3)C2)CC1` [Compound 35, 2,beta,N(N'-methyl)piperazinoethylthio-4,p-phenylthiophenyl-3H-1,5-benzodiazepine monoiodomethylate], in assay [2], the MIC was 10 µg/mL. In assay [3], the “APR8: difference between logarithms” value is recorded as 2.
Take `C[N+](C)(C)CCSC1=Nc2ccccc2N=C(c2ccc(Sc3ccccc3)cc2)C1` [Compound 46, 2,beta,N-dimethylaminoethylthio-4,p-phenylthiophenyl-3H-1,5-benzodiazepine iodomethylate]: the figures for the MIC (in assay [2]; in the assay with Escherichia coli 100) were 20 µg/mL and 160 µg/mL, respectively. In addition, the “APR8: difference between logarithms” value in assay [3] is 2.
For `CC[N+](C)(CC)CCSC1=Nc2ccccc2N=C(c2ccc(Sc3ccccc3)cc2)C1` [Compound 30, 2,beta,N-diethylaminoethylthio-4,p-phenylthio-phenyl-3H-1,5-benzodiazepine iodomethylate], the MIC in assay [2] amounted to 10 µg/mL. For the same molecule, the “APR8: difference between logarithms” value in assay [3] was 1.
The corresponding values for `CCN(CC)CCCSC1=Nc2ccccc2N=C(c2ccc(Sc3ccccc3)cc2)C1` [Compound 39, 2,gamma,N-diethylaminopropylthio-4,p-phenylthiophenyl-3H-1,5-benzodiazepinecitrate] are 10 µg/mL (≈ 21.1 µM) and 3.
As to `C[N+]1(CCSC2=Nc3ccccc3N=C(c3ccc(Sc4ccccc4)cc3)C2)CCOCC1` [Compound 50, 2,beta,N-morpholinoethylthio-4,p-phenylthiophenyl-3H-1,5-benzodiazepine iodomethylate], the MIC worked out at 10 µg/mL in assay [2] and 160 µg/mL with Escherichia coli 100. Moreover, in assay [3], the “APR8: difference between logarithms” value turned out to be 2.
As for `CC[N+](CC)(CCSC1=Nc2ccccc2N=C(c2ccc(Sc3ccccc3)cc2)C1)Cc1ccccc1` [Compound 31, 2,beta,N-diethylaminoethylthio-4,p-phenylthio-phenyl-3H-1,5-benzodiazepine bromobenzylate], the MIC in assay [2] was 10 µg/mL. Also, the “APR8: difference between logarithms” value in assay [3] is over 3.
